Experimental data reported in PubChem BioAssay (NCI).
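Briefly, cells in 96-well plates were exposed to five compound concentrations for 48 h, and endpoints were estimated by linear interpolation. At the TGI there is no net growth.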

What was measured:
Assay in all cases: NCI tumour cell line growth inhibition, 48 h
A498 renal = tested on: A498 renal
A549 NSCLC = tested on: A549 NSCLC
ACHN renal = tested on: ACHN renal
BT-549 breast = tested on: BT-549 breast
CAKI-1 renal = tested on: CAKI-1 renal
COLO 205 colon = tested on: COLO 205 colon
DU-145 prostate = tested on: DU-145 prostate
HCC-2998 colon = tested on: HCC-2998 colon
HOP-92 NSCLC = tested on: HOP-92 NSCLC
HT29 colon = tested on: HT29 colon
IGROV1 ovarian = tested on: IGROV1 ovarian
K-562 leukemia = tested on: K-562 leukemia
LOX IMVI melanoma = tested on: LOX IMVI melanoma
M14 melanoma = tested on: M14 melanoma
MALME-3M melanoma = tested on: MALME-3M melanoma
MDA-MB-231 breast = tested on: MDA-MB-231 breast
MDA-MB-435 = tested on: MDA-MB-435
MDA-N = tested on: MDA-N
NCI-H226 lung = tested on: NCI-H226 lung
NCI-H23 lung = tested on: NCI-H23 lung
NCI-H460 lung = tested on: NCI-H460 lung
NCI/ADR-RES ovarian = tested on: NCI/ADR-RES ovarian
OVCAR-5 ovarian = tested on: OVCAR-5 ovarian
PC-3 prostate = tested on: PC-3 prostate
SF-295 CNS = tested on: SF-295 CNS
SK-MEL-2 melanoma = tested on: SK-MEL-2 melanoma
SK-MEL-28 melanoma = tested on: SK-MEL-28 melanoma
SK-MEL-5 melanoma = tested on: SK-MEL-5 melanoma
SK-OV-3 ovarian = tested on: SK-OV-3 ovarian
SN12C renal = tested on: SN12C renal
SW-620 colon = tested on: SW-620 colon
TK-10 renal = tested on: TK-10 renal
UACC-257 melanoma = tested on: UACC-257 melanoma
UACC-62 melanoma = tested on: UACC-62 melanoma
UO-31 renal = tested on: UO-31 renal
786-0 renal = tested on: 786-0 renal
CCRF-CEM leukemia = tested on: CCRF-CEM leukemia
EKVX NSCLC = tested on: EKVX NSCLC
HCT-116 colon = tested on: HCT-116 colon
HCT-15 colon = tested on: HCT-15 colon
HL-60(TB) leukemia = tested on: HL-60(TB) leukemia
HOP-62 NSCLC = tested on: HOP-62 NSCLC
MCF7 breast = tested on: MCF7 breast
MOLT-4 leukemia = tested on: MOLT-4 leukemia
NCI-H522 lung = tested on: NCI-H522 lung
OVCAR-3 ovarian = tested on: OVCAR-3 ovarian
OVCAR-4 ovarian = tested on: OVCAR-4 ovarian
OVCAR-8 ovarian = tested on: OVCAR-8 ovarian
RPMI-8226 leukemia = tested on: RPMI-8226 leukemia
SF-268 CNS = tested on: SF-268 CNS
SF-539 CNS = tested on: SF-539 CNS
SNB-19 CNS = tested on: SNB-19 CNS
SNB-75 CNS = tested on: SNB-75 CNS
SR leukemia = tested on: SR leukemia
T-47D breast = tested on: T-47D breast
U251 CNS = tested on: U251 CNS
KM12 colon = tested on: KM12 colon

## c1ccc2cc3c(cc2c1)Nc1c2ccccc2nc2cccc-3c12
A498 renal
  TGI: 6.8 µM
A549 NSCLC
  TGI: 3.3 µM
ACHN renal
  TGI: 2.88 µM
BT-549 breast
  TGI: 38.4 µM
CAKI-1 renal
  TGI: 3.05 µM
COLO 205 colon
  TGI: 3.02 µM
DU-145 prostate
  TGI: 3.1 µM
HCC-2998 colon
  TGI: 3.1 µM
HOP-92 NSCLC
  TGI: 2.86 µM
HT29 colon
  TGI: 3.2 µM
IGROV1 ovarian
  TGI: 2.75 µM
K-562 leukemia
  TGI: > 100 µM
LOX IMVI melanoma
  TGI: 2.93 µM
M14 melanoma
  TGI: 3.76 µM
MALME-3M melanoma
  TGI: 3.07 µM
MDA-MB-231 breast
  TGI: 2.45 µM
MDA-MB-435
  TGI: 3.43 µM
MDA-N
  TGI: 2.83 µM
NCI-H226 lung
  TGI: 5.03 µM
NCI-H23 lung
  TGI: 2.61 µM
NCI-H460 lung
  TGI: 3.26 µM
NCI/ADR-RES ovarian
  TGI: 4.69 µM
OVCAR-5 ovarian
  TGI: 3.22 µM
PC-3 prostate
  TGI: 2.87 µM
SF-295 CNS
  TGI: 2.96 µM
SK-MEL-2 melanoma
  TGI: 2.84 µM
SK-MEL-28 melanoma
  TGI: 3.12 µM
SK-MEL-5 melanoma
  TGI: 3.11 µM
SK-OV-3 ovarian
  TGI: 3.01 µM
SN12C renal
  TGI: 3.08 µM
SW-620 colon
  TGI: 2.91 µM
TK-10 renal
  TGI: 3.28 µM
UACC-257 melanoma
  TGI: 2.92 µM
UACC-62 melanoma
  TGI: 3.57 µM
UO-31 renal
  TGI: 3 µM

## CCCCN(CCCC)CCC(O)c1cc(-c2ccc(C(F)(F)F)cc2)nc(-c2ccc(C(F)(F)F)cc2)c1 (stereo not drawn)
786-0 renal
  TGI: > 100 µM
A498 renal
  TGI: > 100 µM
ACHN renal
  TGI: > 100 µM
CAKI-1 renal
  TGI: > 100 µM
CCRF-CEM leukemia
  TGI: > 100 µM
COLO 205 colon
  TGI: > 100 µM
DU-145 prostate
  TGI: > 100 µM
EKVX NSCLC
  TGI: > 100 µM
HCC-2998 colon
  TGI: > 100 µM
HCT-116 colon
  TGI: > 100 µM
HCT-15 colon
  TGI: > 100 µM
HL-60(TB) leukemia
  TGI: > 100 µM
HOP-62 NSCLC
  TGI: > 100 µM
HOP-92 NSCLC
  TGI: > 100 µM
HT29 colon
  TGI: > 100 µM
IGROV1 ovarian
  TGI: > 100 µM
K-562 leukemia
  TGI: > 100 µM
LOX IMVI melanoma
  TGI: > 100 µM
M14 melanoma
  TGI: > 100 µM
MALME-3M melanoma
  TGI: > 100 µM
MCF7 breast
  TGI: > 100 µM
MDA-MB-231 breast
  TGI: > 100 µM
MDA-MB-435
  TGI: > 100 µM
MDA-N
  TGI: > 100 µM
MOLT-4 leukemia
  TGI: > 100 µM
NCI-H23 lung
  TGI: > 100 µM
NCI-H460 lung
  TGI: > 100 µM
NCI-H522 lung
  TGI: > 100 µM
NCI/ADR-RES ovarian
  TGI: > 100 µM
OVCAR-3 ovarian
  TGI: > 100 µM
OVCAR-4 ovarian
  TGI: > 100 µM
OVCAR-5 ovarian
  TGI: > 100 µM
OVCAR-8 ovarian
  TGI: > 100 µM
PC-3 prostate
  TGI: > 100 µM
RPMI-8226 leukemia
  TGI: > 100 µM
SF-268 CNS
  TGI: > 100 µM
SF-295 CNS
  TGI: > 100 µM
SF-539 CNS
  TGI: > 100 µM
SK-MEL-2 melanoma
  TGI: > 100 µM
SK-MEL-28 melanoma
  TGI: > 100 µM
SN12C renal
  TGI: > 100 µM
SNB-19 CNS
  TGI: > 100 µM
SNB-75 CNS
  TGI: > 100 µM
SR leukemia
  TGI: > 100 µM
SW-620 colon
  TGI: > 100 µM
T-47D breast
  TGI: > 100 µM
TK-10 renal
  TGI: > 100 µM
U251 CNS
  TGI: > 100 µM
UACC-257 melanoma
  TGI: > 100 µM
UACC-62 melanoma
  TGI: > 100 µM
UO-31 renal
  TGI: > 100 µM

## c1cc(-c2ccc(-c3nc4ccc(C5=NCCN5)cc4s3)s2)ccc1C1=NCCN1
786-0 renal
  TGI: 0.272 µM
ACHN renal
  TGI: 1.28 µM
BT-549 breast
  TGI: 5.27 µM
CAKI-1 renal
  TGI: 4.71 µM
CCRF-CEM leukemia
  TGI: 0.574 µM
DU-145 prostate
  TGI: 0.677 µM
EKVX NSCLC
  TGI: 2.69 µM
HCC-2998 colon
  TGI: 0.162 µM
HCT-116 colon
  TGI: 1.35 µM
HCT-15 colon
  TGI: 16.6 µM
HL-60(TB) leukemia
  TGI: 2.08 µM
HOP-62 NSCLC
  TGI: 0.257 µM
HOP-92 NSCLC
  TGI: 1.08 µM
HT29 colon
  TGI: 2.08 µM
IGROV1 ovarian
  TGI: 2.52 µM
K-562 leukemia
  TGI: 4 µM
KM12 colon
  TGI: 1.67 µM
MALME-3M melanoma
  TGI: 1.4 µM
MCF7 breast
  TGI: 0.255 µM
MDA-MB-231 breast
  TGI: 1.49 µM
MDA-N
  TGI: 1 µM
MOLT-4 leukemia
  TGI: 0.879 µM
NCI-H23 lung
  TGI: > 100 µM
NCI/ADR-RES ovarian
  TGI: > 100 µM
OVCAR-3 ovarian
  TGI: 5.25 µM
OVCAR-4 ovarian
  TGI: 0.5 µM
OVCAR-5 ovarian
  TGI: 0.327 µM
OVCAR-8 ovarian
  TGI: 0.801 µM
PC-3 prostate
  TGI: 2.27 µM
RPMI-8226 leukemia
  TGI: 1.22 µM
SF-268 CNS
  TGI: 0.662 µM
SF-295 CNS
  TGI: 0.249 µM
SF-539 CNS
  TGI: 0.319 µM
SK-MEL-2 melanoma
  TGI: 2.96 µM
SNB-19 CNS
  TGI: 9.38 µM
SR leukemia
  TGI: 1.43 µM
SW-620 colon
  TGI: > 100 µM
T-47D breast
  TGI: 1.42 µM
TK-10 renal
  TGI: 2.42 µM
U251 CNS
  TGI: 0.821 µM
UACC-257 melanoma
  TGI: > 100 µM
UO-31 renal
  TGI: 2.61 µM
